# Measured values published in patent US10077463B2, “Optical selection of cells” (President and Fellows of Harvard College, priority 2015, dated 2018).
# Legend:
# [1] = tested on: rat hippocampal neurons; assay: Photostick of a single neuron chosen by Optopatch firing pattern; format: cell-based; conditions: 15 μM, 407 nm light 2200 J/cm^2, ACCUTASE 6 min 37° C.
# [2] = tested on: MDCK cells; format: cell-based; conditions: 4 μM, 407 nm light 825 J/cm^2
# [3] = tested on: MDCK cells; assay: Photostick of MDCK cells (violet light crosslinking, ACCUTASE development); format: cell-based, Canine
# [4] = tested on: MDCK cells; assay: Cell entry by high magnification fluorescence imaging; format: cell-based, Canine; conditions: 4 μM, fluorescence localized to the cell membrane
compound,measurement,setting,value
CC[N+]1=C(/C=C/C=C2/N(CCCCCC(=O)NCCNC(=O)CCSSCCNC(=O)C(CCCCNC(=O)CCCCC3SCC4NC(=O)NC43)NC(=O)c3ccc(N=[N+]=N)cc3)c3ccc(S(=O)(=O)O)cc3C2(C)C)C(C)(C)c2cc(S(=O)(=O)O)ccc21 (stereo not drawn) [Cy3-SBED],Retention of selected neuron after ACCUTASE (in words),[1],the selected neuron remained
same,Cell doubling time post-photostick,[2],34 h
same,Cells in the dark region removed,[3],99.96%
same,Cells within the illuminated region retained (photostuck cells remained),[3],98.7%
same,Non-photostuck cells remained,[3],0.04%
same,Entry into cells (intracellular fluorescence),[4],did not enter the cells
